21 compounds from PubChem BioAssay (NCI) can be followed below.

Molecules are shown by their SMILES.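 Interpolation was linear, between the two tested concentrations surrounding the appropriate level; five concentrations were tested over 48 hours in 96-well plates. GI50 is the concentration that inhibits growth by half. TGI denotes the concentration required for complete inhibition of growth.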

Experiment in all cases: NCI anticancer screen, dose series, 48 h
Experiment [1] relates to ACHN renal.
Experiment [2] deals with EKVX NSCLC.
The subject of experiment [3] is HCT-15 colon.
In experiment [4] the test system is KM12 colon.
The test system of experiment [5] is M14 melanoma.
Experiment [6] relates to MCF7 breast.
Experiment [7] has as its system SN12C renal.
For experiment [8], the system named is UACC-62 melanoma.
The test system of experiment [9] is OVCAR-5 ovarian.
Experiment [10] concerns SK-MEL-2 melanoma.
Experiment [11] deals with U251 CNS.

As to `Cc1nn(C(=O)Cc2ccccc2)c2c1C(c1ccccc1)SC(N)=N2` (configuration not stated), the TGI in [1], in experiment [2], in [3], in experiment [4], in experiment [5] and in experiment [6] was above 100 µM in each case. In addition, the TGI in [7] and in [8] was above 100 µM throughout.
Turning to `CON(C)C(=O)C(Cc1ccccc1)NC(=O)OCc1ccccc1` (configuration not stated), the TGI in experiment [1], in experiment [2], in [3], in experiment [4], in [5] and in experiment [9] was above 100 µM throughout. Also, the TGI in experiment [10], in experiment [7], in experiment [11] and in experiment [8] was above 100 µM each time.
With `O=[N+]([O-])c1ccc2nc(Nc3ccccc3)c(Nc3ccccc3)nc2c1`, the TGI in experiment [1] came to 3.11 µM; in experiment [2], 6.22 µM; in [3] it was 2.18 µM; in experiment [4] it was 2.78 µM; in experiment [9], 6.93 µM; in experiment [10] it was 4.49 µM. In addition, the TGI was 2.67 µM in experiment [7], 1.99 µM in experiment [11] and 2.23 µM in experiment [8].
`CSC(=O)c1sc(SC)[n+](-c2ccccc2)c1O`: the TGI was above 100 µM in experiment [1]; 54.3 µM in [3]; 29.2 µM in experiment [5]; 52.8 µM in experiment [6]; 49.6 µM in experiment [9]; 53.1 µM in experiment [10]. Moreover, the TGI in [7] is 38.8 µM; in experiment [11], 30.1 µM; in experiment [8], 29.7 µM.
As to `COc1cc(-c2cccs2)sc1-c1cccs1`, the TGI in experiment [1], in experiment [2], in [3], in experiment [4], in experiment [5] and in [9] was above 100 µM throughout. Besides, the TGI in experiment [10], in experiment [7], in experiment [11] and in [8] was above 100 µM in each case.
Take `C/C(=N\NC(N)=S)c1ccc2c(c1)Sc1ccccc1O2`: the TGI was 43.7 µM in experiment [1]; 13.6 µM in experiment [2]; 4.63 µM in [3]; above 100 µM in experiment [4]; above 100 µM in experiment [5]; above 100 µM in experiment [9]. Further, the TGI was 6.99 µM in [10], above 100 µM in [7], 11.7 µM in experiment [11] and 12.3 µM in experiment [8].
In the case of `Cc1cn(C2OC(CO[Si](C)(C)C(C)(C)C)C(N(C)O[Si](C)(C)C(C)(C)C)C2[Se]c2ccccc2)c(=O)[nH]c1=O` (configuration not stated), the TGI in experiment [1] turned out to be 18.3 µM; in experiment [3], 30.1 µM; in experiment [4], 16.2 µM; in experiment [5], 50.8 µM; in [6], 25.4 µM; in experiment [9], 11.7 µM. Moreover, the TGI is 34 µM in experiment [10], above 100 µM in experiment [7], 24.5 µM in experiment [11] and 42.4 µM in experiment [8].
Take `O=c1cc(-c2ccc3c(c2)OCO3)[nH]c2cc3c(cc12)OCO3`: the TGI in [1], in experiment [2], in [3], in experiment [4], in experiment [5] and in experiment [10] was above 100 µM in each case. The TGI in [7] was above 100 µM; in [11] it was 99 µM; in experiment [8], above 100 µM.
As to `COC(=O)[C@]1(C)CCC[C@@]2(C)C1CC[C@@]13C=C(C(C)C)[C@@H](CC1=O)CC23` (some centres not stated), the TGI in [1] was 45.1 µM; in experiment [2] it was 71.6 µM; in experiment [3] it was 45.4 µM; in experiment [4], above 100 µM; in experiment [5], above 100 µM; in experiment [6] it was 64 µM. For the same compound, the TGI in experiment [7] was 41.2 µM; in [11] it was 39.2 µM; in [8], above 100 µM.
`CCn1cnc2c(=S)nc(N)[nH]c21`: the TGI in [1], in [2], in experiment [3], in experiment [4], in experiment [5] and in experiment [7] was above 100 µM each time. Further, the TGI in experiment [11] and in experiment [8] was above 100 µM throughout.
In the case of `COc1cc(/C=C2\CN(S(=O)(=O)c3ccc(C)cc3)C/C(=C\c3cc(CN4CCCC4)c(O)c(OC)c3)C2=O)cc(CN2CCCC2)c1O`, the GI50 in [1] is 1.38 µM; in [3], 1.94 µM; in experiment [4], 1.23 µM; in experiment [5], 1.55 µM; in experiment [6] it was 0.967 µM; in experiment [9], 2.27 µM. Moreover, the GI50 was 1.87 µM in experiment [10], 1.24 µM in experiment [7] and 0.82 µM in [11]. In addition, the TGI was determined as 2.71 µM in experiment [1]; 5.83 µM in experiment [3]; 2.56 µM in [4]; 3.17 µM in [5]; 3.93 µM in [6]; 3.84 µM in experiment [9]. The TGI in [10] is 4.05 µM; in experiment [7] it was 2.8 µM; in experiment [11] it was 2.34 µM.
As for `CCOC(=O)c1cc(-c2ccc(OC)cc2)c([N+](=O)[O-])n1C`, the TGI in experiment [1], in [2], in experiment [3], in experiment [4], in experiment [5] and in [9] was above 10 µM in each case. In addition, the TGI in [10], in [7], in experiment [11] and in experiment [8] was above 10 µM throughout.
With `CCOC(=O)c1ccc(-c2cc(C)no2)[nH]1`, the TGI in experiment [1], in experiment [2], in experiment [3], in [4], in experiment [5] and in experiment [9] was above 100 µM in each case. The TGI in experiment [10], in [7], in [11] and in [8] was above 100 µM each time.
Take `CCNC(=O)c1ccc(C)c(N=NN(C)C)c1`: the TGI in [1], in experiment [2], in experiment [3], in [4], in experiment [5] and in experiment [10] was above 100 µM each time. For the same compound, the TGI in experiment [7], in experiment [11] and in [8] was above 100 µM each time.
Turning to `CCOC(=O)/C(C#N)=C/c1coc2cc(C)cc(C)c2c1=O`, the TGI in [1], in experiment [2], in [3], in experiment [4], in experiment [5] and in experiment [9] was above 100 µM throughout. The TGI in experiment [7], in [11] and in experiment [8] was above 100 µM throughout.
As for `O=C(CC1Sc2ccccc2NC1=O)Nc1ccccc1[N+](=O)[O-]` (configuration not stated), the TGI in experiment [1], in experiment [2], in experiment [3], in experiment [4], in experiment [5] and in experiment [9] was above 100 µM throughout. Moreover, the TGI in experiment [10], in [7], in experiment [11] and in experiment [8] was above 100 µM throughout.
Regarding `CO[C@](C(=O)OC[C@H]1[C@@H](COC(C)=O)[C@@H]2O[C@H]1c1cc3c(cc12)OCO3)(c1ccccc1)C(F)(F)F`, the TGI in experiment [2] is 98.8 µM; in experiment [3], above 100 µM; in [4] it was above 100 µM; in [5], above 100 µM; in experiment [9], above 100 µM; in experiment [10] it was 91.3 µM. The TGI in [7], in experiment [11] and in experiment [8] was above 100 µM each time.
In the case of `COc1cc2c(/C=C3/C(=O)Nc4cccc(Cl)c43)c(Cl)[nH]c2cc1C`, the TGI in experiment [1] amounted to 12.2 µM; in experiment [3] it was 4.29 µM; in experiment [4], 3.72 µM; in experiment [5] it was 7.78 µM; in experiment [6], 8.35 µM; in experiment [9], 14.8 µM. The TGI amounted to 12.3 µM in experiment [10], 3.33 µM in experiment [7], 3.99 µM in [11] and 4.21 µM in [8].
Regarding `Nc1nc(Cl)cc(OCC2(CO)CC=CC2)n1`, the TGI in experiment [1], in [2], in experiment [3], in [6], in [9] and in [7] was above 100 µM throughout. Besides, in experiment [11], the TGI was above 100 µM.
`COc1ccc(C2Oc3cc(OC)c(OC)cc3C2CCl)cc1OC` (configuration not stated): the TGI in [1], in [2], in experiment [3], in [4], in experiment [5] and in experiment [9] was above 100 µM throughout. In addition, the TGI is above 100 µM in experiment [10], above 100 µM in experiment [7], above 100 µM in [11] and 79.5 µM in experiment [8].
For `Cc1ccc(Nc2nc(NNC(=O)Cc3ccccc3)nc(NNC(=O)c3ccncc3)n2)cc1`, the TGI in experiment [2], in [3], in experiment [4], in [5], in experiment [6] and in experiment [7] was above 10 µM in each case. Moreover, the TGI in [11] and in experiment [8] was above 10 µM each time.
